According to ChEMBL document CHEMBL1201862, “PubChem BioAssay data set” (2004):
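Tested at 5 concentrations; 48 h exposure; 96-well plates; endpoints linearly interpolated, else capped at highest concentration. Abbreviation: GI50, concentration required for 50% inhibition of growth.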 Active and inactive are the calls of the source. Rule as the data show it: active = GI50 up to about 1.1 µM and inactive = higher.

What was measured:
Test in all cases: NCI tumour cell line growth inhibition, 48 h
DU-145 = test system: DU-145
NCI-H226 = test system: NCI-H226
UACC-257 = test system: UACC-257
UACC-62 = test system: UACC-62
SNB-75 = test system: SNB-75
SK-MEL-28 = test system: SK-MEL-28
SK-MEL-2 = test system: SK-MEL-2
MOLT-4 = test system: MOLT-4
K562 = test system: K562
TK-10 = test system: TK-10
SW-620 = test system: SW-620
COLO 205 = test system: COLO 205
RPMI-8226 = test system: RPMI-8226
SK-OV-3 = test system: SK-OV-3
LOX IMVI = test system: LOX IMVI
MCF7 = test system: MCF7
SK-MEL-5 = test system: SK-MEL-5
HCC 2998 = test system: HCC 2998

Measured: GI50

O=S(=O)(O)c1cc(/N=N/c2cccc3ccccc23)c(O)c2ncccc12
inactive: DU-145 > 100 µM | NCI-H226 16 µM | UACC-257 64.4 µM | UACC-62 36.2 µM | SNB-75 60.3 µM | SK-MEL-28 > 100 µM | SK-MEL-2 82 µM | MOLT-4 26.9 µM | K562 32.1 µM | TK-10 > 100 µM | SW-620 59.8 µM | COLO 205 33.4 µM | RPMI-8226 41.2 µM | SK-OV-3 > 100 µM | LOX IMVI 60.8 µM | MCF7 23.7 µM | SK-MEL-5 31.1 µM

COc1ccc(/C=C2\CCC(C)c3c2nc(N)c(C#N)c3-c2ccc(OC)c(OC)c2)cc1OC (centres undefined)
inactive: DU-145 20.7 µM | NCI-H226 5.7 µM | UACC-257 1.96 µM | UACC-62 88.1 µM | SK-MEL-28 45.8 µM | SK-MEL-2 2.42 µM | MOLT-4 3.1 µM | K562 12 µM | TK-10 10.8 µM | SW-620 > 100 µM | COLO 205 6.56 µM | RPMI-8226 3.65 µM | SK-OV-3 18.5 µM | LOX IMVI 66.4 µM | MCF7 5.65 µM | SK-MEL-5 4.84 µM

N#Cc1c2c([nH]c(=O)c1C#N)CCCC2
inactive: DU-145 > 100 µM | NCI-H226 > 100 µM | UACC-257 > 100 µM | HCC 2998 > 100 µM | UACC-62 > 100 µM | SNB-75 82.8 µM | SK-MEL-28 > 100 µM | SK-MEL-2 > 100 µM | MOLT-4 > 100 µM | K562 > 100 µM | TK-10 > 100 µM | SW-620 > 100 µM | COLO 205 > 100 µM | SK-OV-3 > 100 µM | LOX IMVI > 100 µM | MCF7 > 100 µM | SK-MEL-5 > 100 µM

CCOC(=O)c1cc(Br)c(-c2cc(C)co2)[nH]1
inactive: DU-145 > 100 µM | NCI-H226 > 100 µM | UACC-257 > 100 µM | HCC 2998 > 100 µM | UACC-62 > 100 µM | SNB-75 > 100 µM | SK-MEL-28 > 100 µM | SK-MEL-2 > 100 µM | MOLT-4 54.6 µM | K562 69.8 µM | SW-620 > 100 µM | COLO 205 > 100 µM | RPMI-8226 > 100 µM | SK-OV-3 > 100 µM | LOX IMVI > 100 µM | MCF7 > 100 µM | SK-MEL-5 81.3 µM

O=C1/C(=C/Cc2ccco2)N=C(c2ccccc2)N1c1nc2ccc(Sc3ccccc3)cc2[nH]1
inactive: DU-145 23.1 µM | UACC-257 17.7 µM | HCC 2998 16.9 µM | UACC-62 20.7 µM | SNB-75 19.5 µM | SK-MEL-28 28.2 µM | SK-MEL-2 16.1 µM | MOLT-4 16.3 µM | K562 28.1 µM | TK-10 35.4 µM | SW-620 34 µM | COLO 205 18.2 µM | RPMI-8226 24.2 µM | SK-OV-3 25.9 µM | LOX IMVI 18.8 µM | MCF7 14 µM | SK-MEL-5 15.9 µM

CCOC(=O)CCCn1nnc(C(=O)OCC)c1C(=O)OCC
inactive: DU-145 > 100 µM | NCI-H226 > 100 µM | UACC-257 > 100 µM | HCC 2998 > 100 µM | UACC-62 > 100 µM | SNB-75 > 100 µM | SK-MEL-28 > 100 µM | SK-MEL-2 > 100 µM | MOLT-4 > 100 µM | TK-10 > 100 µM | SW-620 > 100 µM | COLO 205 > 100 µM | LOX IMVI > 100 µM | MCF7 > 100 µM | SK-MEL-5 > 100 µM
